Results published in patent publication US8178497B2, “Method of treating HIV in drug resistant non plasma viral reservoirs with monomeric DAPTA” (Rapid Pharmaceuticals AG, priority 2007, dated 2012).
Where two headings read alike, the source gives them in different places.

Assays:
CCR5 [1] = biological target: T1, CCR5 (Homo sapiens, UniProt P51681); assay: CCR5 expression on SK-N-SH neuronal cells, 2D7 mAb staining; type: cell-based; set-up: CCR5 expression in these differentiated cells is limited and further reduced in the presence of DAPTA; endogenous in cells; host or cells: SK-N-SH (differentiated with retinoic acid)
T1 sequence (P51681 whole entry): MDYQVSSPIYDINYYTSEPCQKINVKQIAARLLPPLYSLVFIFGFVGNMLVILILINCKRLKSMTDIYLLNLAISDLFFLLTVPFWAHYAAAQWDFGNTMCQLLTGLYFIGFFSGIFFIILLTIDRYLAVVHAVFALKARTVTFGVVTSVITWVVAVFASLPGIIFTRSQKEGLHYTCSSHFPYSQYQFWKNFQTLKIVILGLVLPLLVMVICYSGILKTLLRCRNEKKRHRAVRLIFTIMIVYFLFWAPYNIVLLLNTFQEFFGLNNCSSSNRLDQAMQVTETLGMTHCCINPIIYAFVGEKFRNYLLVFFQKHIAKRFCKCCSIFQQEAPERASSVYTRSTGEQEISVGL
Excerpt: To assess CCR5 expression on surface of neuronal cell lines, SK-N-SH were stained with 2D7 mAb in presence or in absence of DAPTA (at different doses) and TAK-779. SK-N-SH line has the potential of differentiating to neural cells in the presence of retinoic acid, and it has been used as a model of primary neurons.

[2] = system: SK-N-SH cells exposed to R5 HIV-1 strain BaL; assay: apoptosis of differentiated SK-N-SH cells exposed to HIV-1 BaL, FACS; type: cell-based; settings: for apoptosis, share of SK-N-SH cells: day 5, 60% with HIV-1BaL alone
Excerpt: Finally, we exposed differentiated SK-N-SH cells to the R5 HIV-1 strain BaL, in the presence or absence of monomeric DAPTA, and assessed neuronal apoptosis. […] To compare the anti-apoptotic effect of monomeric DAPTA with other CCR5-binding molecules, we also tested the CCR5 antagonist TAK-779.

[3] = aggregation of peptide in solution; type: physicochemical
Excerpt: These marginal clinical benefits were inexplicable in the context of the many successful in vitro studies and an explanation was sought. […] Therefore reduction to practice required that the non-obvious formation of multimers must be remedied for considerations of both patient safety and drug efficacy.

HIV [4] = settings: frozen stored plasma samples; p=.037; cited from earlier work
[5] = system: CCR5-using HIV-1 strain, 81A; assay: p24 antigen production in HIV-infected M/M (CCR5-using strain); type: cell-based
Procedure: (§1) Viral replication and production in HIV-infected M/M treated with DAPTA was assessed 14 and 21 days after infection for p24 antigen production.

HIV [6] = settings: main endpoint of the small trial; cited from earlier work
CCR5 [7] = biological target: T1, CCR5; assay: competition between CCR5-FITC antibody and DAPTA in M/M, flow cytometry; type: cell-based; set-up: endogenous in cells; host or cells: human primary monocyte/macrophages (M/M)
Excerpt: To confirm that monomeric DAPTA binding is specific for CCR5, a competition experiment between CCR5-FITC antibody and DAPTA in M/M was done. […] Treatment with monomeric DAPTA reduced CCR % expression to 9% with 10^−12 M DAPTA, compared with 35% of mock-treated M/M (FIG. 2) (p≦0.001).

HIV-1 = settings: 18 hours postinfection, vs not-treated cells
Procedure: Eighteen hours postinfection, genomic DNA was extracted and two-fold dilution of cell equivalents (range 1×10^6-1.25×10^5) were amplified in an inverse/nested PCR specific for a conserved gag region of the viral genome. Semi-quantitative analyses of HIV-1 DNA in M/M were performed by comparison of DNA amplification products from infected cells, standardized by PCR for β-actin, to standards of amplified U1 DNA copies and cell numbers. The UN-SCAN IT-gel software (Silk Scientific Inc.) was used to determine band densities (FIG. 3A).

HIV [8] = settings: doses as high as 10^−7 M; cited from earlier work
[9] = system: CXCR4-using (X4) strains, HIV-1 IIIB; assay: p24 antigen production in HIV-infected M/M (CXCR4-using strain); type: cell-based; settings: M/M infected by HIV-1 IIIB; data not shown
Procedure: as §1

Compound | inhibition of CCR5 expression (CCR5 [1]; 1.8×10^−6 M) | inhibition of apoptosis ([2]; 1.8×10^−6 M, vs cells not treated) [%] | aggregation in solution [3] | reduction in viral load (HIV [4]) [log 10] | inhibition of CCR5 expression (CCR5 [1]; 10^−12M, vs unexposed SK-N-SH) [%] | inhibition of CCR5 expression (CCR5 [1]; 10^−13M, vs unexposed SK-N-SH) [%] | reduction of p24 gag antigen production of control M/M cultures ([5]; HIV-1 81A, doses as low as 10^−14 M, 14 and 21 days after infection) [%] | effective dose lower than described in earlier reports (enhanced in vitro potency) ([5]; monomeric formulation vs earlier reports) | plasma viral load (HIV [6]) | inhibition of CCR5-binding, maximum (CCR5 [7]; 10^−12 M) [%] | CCR5 expression (CCR5+ M/M) (CCR5 [7]; 10^−12 M, mock-treated 35%) [%] | CCR5+ positive M/M (CCR5 [7]; DAPTA treated M/M, mock-treated 35%) [%] | inhibition of CCR5-binding (CCR5 [7]; overall, several DAPTA doses) | decline of HIV-1 DNA per 2.5×10^5 cells (HIV-1; 10^−7 M) [%] | decline of HIV-1 DNA per 2.5×10^5 cells (HIV-1; 10^−9 M) [%] | antiviral effects (Sodroski) (HIV [8]) | effect on HIV-1 p24 antigen production [9] | apoptosis, share of SK-N-SH cells ([2]; 10^−3M) [%] | apoptosis, share of SK-N-SH cells ([2]; 10^−12M) [%]
Cc1ccc(-c2ccc3c(c2)C=C(C(=O)Nc2ccc(C[N+](C)(C)C4CCOCC4)cc2)CCC3)cc1.[Cl-] [TAK-779, reference compound] | about 61% | 30 | – | – | – | – | – | – | – | – | – | – | – | – | – | – | – | – | –
Dala1-peptide T-amide [DAPTA] | – | – | quickly formed aggreagates in solution | 0.54 | 72 | 68.5 | ~80 | 100-100,000 fold | failing to reduce plasma viral load | 73 | 9 | 20 | about 43% | 64 | 70 | failed to find antiviral effects | no effect | 28 | 26
